# Laboratory results as given in patent US11839679B2, “Gamma-diketones for treatment and prevention of aging skin and wrinkles” (BioSplice Therapeutics, Inc., priority 2014, dated 2023).
# Tested on: fine lines, wrinkles in the outer canthus of the eyes (crow's feet area)
# Experiment: Roughness reduction [SEr] via Visioscan, Example 1
# Format: in vivo, human
# Design: Roughness [SEr] via Visioscan / Roughness [SEr] via Visioscan, Mean: scale not given here
# Method: Three groups of women were recruited to evaluate and compare the efficacy of three anti-aging test products (targeting the periorbital eye area) intended to reduce the appearance of fine lines, wrinkles in the outer canthus of the eyes (crow's feet area) over a 12 week period. Wrinkle assessment was conducted instrumentally using a Visioscan image analysis system. Effectiveness of the test product was evaluated using panelist self-assessment via questionnaire responses comprised of 3-4 questions (Q1, Q2, Q3 & Q4). Each stage in the progression of treatments was photographically documented using a High Resolution Scientifically Matched Photography technique. Image analysis was utilized to quantify changes in fine lines and crow's feet condition observed in the Scientifically Matched Photographs.
# Subject Selection: • Number: Six subjects (two per group) to complete the study. • Sex: Females • Race: Caucasian/Asian/Hispanic • Age Range: 40 through 60 years old
# Test samples: • Topical 0.15% of Compound #222 in Oil (a 50/50 mixture of • Propylene Glycol Dicaprylate/Dicaprate and Caprylic/Capric Triglyceride) (Cohort 1) • Topical 0.15% of Compound #222 in PEG400 (Cohort 2) • Topical 0.05% of Compound #222 in PEG400 (Cohort 3)
# Prior to baseline measurements being taken, areas of involvement were marked on the facial surface using a standard template, to ensure that instruments were repositioned in the same location at each visit. The biophysical measurements (Surface Evaluation of Living Skin via Visioscan) were conducted by a trained technician. Pre-treatment High Resolution Scientifically Matched Photographs were taken.
# […] After acclimating to ambient conditions, High Resolution Scientifically Matched Photographs were be taken and biophysical measurements (Surface Evaluation of Living Skin via Visioscan) were repeated using the standard template to identify test sites on the face. In addition (during the acclimation period) all participants were be asked to fill out a self-assessment questionnaire.
# Surface Evaluation of Living Skin Visioscan: The Visioscan (Courage and Khazaka) took a direct image of the living skin using a measuring head containing a CCD-camera and two metal halogen lamps positioned opposite each other in order to ensure even illumination of the measuring field on the skin (Skin Pharmacol Appl Skin Physiol (1999), 12(1-2), 1-11 and Cosmetic & Toiletries magazine (2009), 124(6), 51-54). The grey level distribution of the pixels in the image correspond to different phenomena (white pixels represent desquamation on the skin, dark pixels represent lines and wrinkles). The software with the Visioscan automatically calculates skin smoothness, skin roughness, scaliness and wrinkle parameters. […]
# The source data was Visioscan and PhotoGrammetrix Image Analysis readings along with subjective assessments, which were totaled and reported as average scores. Photographs were placed side by side as to compare the photographs of before and after application of the test product in the eye area. […] The data obtained via Visioscan and from PhotoGrammetrix Image Analysis was quoted as % differences from baseline at each of the previously described time points. A paired t-test analysis was conducted in order to compare the results of post test product application measurements to baseline measurements where applicable. Statistical significance was established if p≤(α=0.05) was calculated.
smiles,measurement,setting,value
O=C(CCC(=O)c1ccc2c(c1)OCO2)c1ccccc1 [#222],"Roughness [SEr] via Visioscan, Mean","Day 7, Topical 0.05% in PEG (Cohort 3)",1.64
same,"Roughness [SEr] via Visioscan, Mean","Day 7, Topical 0.15% in Oil (Cohort 1)",1.97
same,"Roughness [SEr] via Visioscan, Mean","Day 7, Topical 0.15% in PEG (Cohort 2)",1.67
same,"Roughness [SEr] via Visioscan, % Difference of Mean","Day 7 vs Baseline, Topical 0.05% in PEG (Cohort 3)",−20.24%
same,"Roughness [SEr] via Visioscan, % Difference of Mean","Day 7 vs Baseline, Topical 0.15% in Oil (Cohort 1)",−10.36%
same,"Roughness [SEr] via Visioscan, % Difference of Mean","Day 7 vs Baseline, Topical 0.15% in PEG (Cohort 2)",−10.19%
same,"Roughness [SEr] via Visioscan, Mean","Day 14, Topical 0.05% in PEG (Cohort 3)",1.51
same,"Roughness [SEr] via Visioscan, Mean","Day 14, Topical 0.15% in Oil (Cohort 1)",1.77
same,"Roughness [SEr] via Visioscan, Mean","Day 14, Topical 0.15% in PEG (Cohort 2)",1.62
same,"Roughness [SEr] via Visioscan, % Difference of Mean","Day 14 vs Baseline, Topical 0.05% in PEG (Cohort 3)",−26.59%
same,"Roughness [SEr] via Visioscan, % Difference of Mean","Day 14 vs Baseline, Topical 0.15% in Oil (Cohort 1)",−19.36%
same,"Roughness [SEr] via Visioscan, % Difference of Mean","Day 14 vs Baseline, Topical 0.15% in PEG (Cohort 2)",−12.53%
same,Roughness [SEr] via Visioscan,"Subject #1, Day 7, Topical 0.15% in Oil (Cohort 1)",2.46
same,"Roughness [SEr] via Visioscan, Individual % Difference","Subject #1, Day 7 vs Baseline, Topical 0.15% in Oil (Cohort 1)",−1.60%
same,Roughness [SEr] via Visioscan,"Subject #1, Day 14, Topical 0.15% in Oil (Cohort 1)",2.25
same,"Roughness [SEr] via Visioscan, Individual % Difference","Subject #1, Day 14 vs Baseline, Topical 0.15% in Oil (Cohort 1)",−9.82%
same,Roughness [SEr] via Visioscan,"Subject #2, Day 7, Topical 0.15% in Oil (Cohort 1)",1.48
same,"Roughness [SEr] via Visioscan, Individual % Difference","Subject #2, Day 7 vs Baseline, Topical 0.15% in Oil (Cohort 1)",−21.90%
same,Roughness [SEr] via Visioscan,"Subject #2, Day 14, Topical 0.15% in Oil (Cohort 1)",1.29
same,"Roughness [SEr] via Visioscan, Individual % Difference","Subject #2, Day 14 vs Baseline, Topical 0.15% in Oil (Cohort 1)",−31.93%
same,Roughness [SEr] via Visioscan,"Subject #3, Day 7, Topical 0.15% in PEG (Cohort 2)",1.95
same,"Roughness [SEr] via Visioscan, Individual % Difference","Subject #3, Day 7 vs Baseline, Topical 0.15% in PEG (Cohort 2)",−11.79%
same,Roughness [SEr] via Visioscan,"Subject #3, Day 14, Topical 0.15% in PEG (Cohort 2)",1.90
same,"Roughness [SEr] via Visioscan, Individual % Difference","Subject #3, Day 14 vs Baseline, Topical 0.15% in PEG (Cohort 2)",−13.83%
same,Roughness [SEr] via Visioscan,"Subject #4, Day 7, Topical 0.15% in PEG (Cohort 2)",1.39
same,"Roughness [SEr] via Visioscan, Individual % Difference","Subject #4, Day 7 vs Baseline, Topical 0.15% in PEG (Cohort 2)",−7.84%
same,Roughness [SEr] via Visioscan,"Subject #4, Day 14, Topical 0.15% in PEG (Cohort 2)",1.35
same,"Roughness [SEr] via Visioscan, Individual % Difference","Subject #4, Day 14 vs Baseline, Topical 0.15% in PEG (Cohort 2)",−10.63%
same,Roughness [SEr] via Visioscan,"Subject #5, Day 7, Topical 0.05% in PEG (Cohort 3)",1.83
same,"Roughness [SEr] via Visioscan, Individual % Difference","Subject #5, Day 7 vs Baseline, Topical 0.05% in PEG (Cohort 3)",−29.07%
same,Roughness [SEr] via Visioscan,"Subject #5, Day 14, Topical 0.05% in PEG (Cohort 3)",1.77
same,"Roughness [SEr] via Visioscan, Individual % Difference","Subject #5, Day 14 vs Baseline, Topical 0.05% in PEG (Cohort 3)",−31.40%
same,Roughness [SEr] via Visioscan,"Subject #6, Day 7, Topical 0.05% in PEG (Cohort 3)",1.44
same,"Roughness [SEr] via Visioscan, Individual % Difference","Subject #6, Day 7 vs Baseline, Topical 0.05% in PEG (Cohort 3)",−5.26%
same,Roughness [SEr] via Visioscan,"Subject #6, Day 14, Topical 0.05% in PEG (Cohort 3)",1.24
same,"Roughness [SEr] via Visioscan, Individual % Difference","Subject #6, Day 14 vs Baseline, Topical 0.05% in PEG (Cohort 3)",−18.42%
